Source: US11840686B2, “Modulation of prekallikrein (PKK) expression” (Ionis Pharmaceuticals, Inc., priority 2013, dated 2023)
Strand notation (5' to 3'): a small letter for the sugar, then the base; units joined by * are phosphorothioate-linked, units joined directly phosphodiester-linked; [ ] holds rarer units or linkages, { } end groups; capitals alone tell only the bases. e = 2'-O-(2-methoxyethyl) (MOE); k = constrained ethyl (cEt); [5mC] = 5-methylcytosine; d = 2'-deoxy (DNA)

Tested on: human PKK mRNA
Assay: Antisense inhibition of human PKK mRNA in HepaRG cells, 1,000 nM, MOE/deoxy/cEt oligonucleotides (Example 3)
Assay type: cell-based
Method in brief: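 HepaRG cells at 20,000 per well electroporated with 1,000 nM 16-mer MOE/cEt/deoxy gapmers (phosphorothioate, 5-methylcytosine). After about 24 h, PKK mRNA measured by qRT-PCR with primer probe set RTS3454, normalized to RIBOGREEN total RNA. Reported as percent inhibition versus untreated cells.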

[1] = HepaRG cells, electroporation with 1,000 nM antisense oligonucleotide, approximately 24 hours, primer probe set RTS3454, relative to untreated control cells, experiment of Table 24
[2] = Table 21 experiment, HepaRG cells, electroporation with 1,000 nM antisense oligonucleotide, approx. 24 hours, PKK mRNA by RT-PCR (RTS3454), relative to untreated control cells
[3] = Table 19, HepaRG cells, electroporation with 1,000 nM antisense oligonucleotide, approximately 24 hours, PKK mRNA by RT-PCR (RTS3454), relative to untreated control cells
[4] = HepaRG cells, 1,000 nM antisense oligonucleotide, Table 29
[5] = HepaRG cells, electroporation with 1,000 nM antisense oligonucleotide, approximately 24 hours, primer probe set RTS3454, relative to untreated control cells, experiment of Table 23
[6] = HepaRG cells, electroporation with 1,000 nM antisense oligonucleotide, approx. 24 hours, PKK mRNA by RT-PCR (RTS3454), relative to untreated control cells, Table 26 experiment
[7] = Table 20, HepaRG cells, electroporation with 1,000 nM antisense oligonucleotide, approximately 24 hours, PKK mRNA by RT-PCR (RTS3454), relative to untreated control cells
[8] = Table 22 experiment, HepaRG cells, electroporation with 1,000 nM antisense oligonucleotide, approx. 24 hours, PKK mRNA by RT-PCR (RTS3454), relative to untreated control cells

## 548027 (eG*eT*kG*dT*d[5mC]*d[5mC]*dT*dA*dT*dG*dA*dG*dT*kG*kA*e[5mC]; antisense) [compound 548027]
[1]
  % inhibition: 18%

## 547805 (eG*eG*kG*dT*dG*dT*dA*d[5mC]*dA*dT*dG*dG*dA*kA*kG*e[5mC]; antisense) [compound 547805]
[2]
  % inhibition: 54%

## 547833 (eA*eA*k[5mC]*dT*dG*d[5mC]*dA*d[5mC]*d[5mC]*dT*dG*dT*dT*k[5mC]*kG*eA; antisense) [compound 547833]
[2]
  % inhibition: 40%

## 548172 (eT*e[5mC]*kA*dG*dT*dT*dG*d[5mC]*dG*dA*d[5mC]*d[5mC]*dT*k[5mC]*kG*e[5mC]; antisense) [compound 548172]
HepaRG cells, electroporation with 1,000 nM antisense oligonucleotide, approx. 24 hours, PKK mRNA by RT-PCR (RTS3454), relative to untreated control cells, Table 25 experiment
  % inhibition: 0%

## 548102 (antisense eG*eT*kA*d[5mC]*dT*d[5mC]*dA*dG*d[5mC]*dG*dA*d[5mC]*dT*kT*kT*eG) [compound 548102]
[3]
  % inhibition: 58%

## 548593 (e[5mC]*eA*kT*d[5mC]*d[5mC]*d[5mC]*dT*dG*dA*d[5mC]*dA*dG*dG*kT*k[5mC]*e[5mC]; antisense) [compound 548593]
[4]
  % inhibition: 61%

## 548074 (e[5mC]*e[5mC]*kT*dT*dT*d[5mC]*dT*d[5mC]*d[5mC]*dT*dT*d[5mC]*dG*kA*kG*eA; antisense) [compound 548074]
[3]
  % inhibition: 0%

## 548097 (antisense eT*eG*k[5mC]*dT*d[5mC]*d[5mC]*d[5mC]*dT*dG*d[5mC]*dG*dG*dG*k[5mC]*kA*e[5mC]) [compound 548097]
[3]
  % inhibition: 2%

## 547952 (e[5mC]*eA*kG*dA*dT*dA*dT*dG*dG*dT*dG*dT*dT*kT*kT*e[5mC]; antisense) [compound 547952]
[5]
  % inhibition: 46%

## 548389 (eT*eT*kG*dA*dG*dG*dA*dA*dA*dG*dA*d[5mC]*d[5mC]*kT*kG*e[5mC]; antisense) [compound 548389]
Table 30, human PKK mRNA, HepaRG cells, 1,000 nM antisense oligonucleotide
  % inhibition: 11%

## 548236 (eT*eA*k[5mC]*dA*dT*d[5mC]*dT*dA*dG*dA*dT*dG*dA*k[5mC]*k[5mC]*eT; antisense) [compound 548236]
[6]
  % inhibition: 37%

## 547909 (e[5mC]*e[5mC]*kA*dA*dT*dT*dT*d[5mC]*dT*dG*dA*dA*dA*kG*kG*eG; antisense) [compound 547909]
[7]
  % inhibition: 82%
[8]
  % inhibition: 51%

## 547930 (eT*eG*kA*dT*dA*dG*dG*dT*dG*d[5mC]*dA*dG*dA*kT*kG*eG; antisense) [compound 547930]
[5]
  % inhibition: 48%

## 547850 (antisense eA*eA*kA*dT*dG*dT*d[5mC]*dT*d[5mC]*dG*dA*dT*dG*kG*k[5mC]*eA) [compound 547850]
[7]
  % inhibition: 51%
[8]
  % inhibition: 80%

## 547982 (antisense eA*eA*kT*d[5mC]*dA*dT*d[5mC]*dT*dT*dT*dG*dT*dG*k[5mC]*kA*eA) [compound 547982]
[5]
  % inhibition: 54%

## 548577 (eA*eA*kT*d[5mC]*dT*dG*d[5mC]*dA*d[5mC]*d[5mC]*dT*dG*dG*k[5mC]*kA*eG; antisense) [compound 548577]
[4]
  % inhibition: 42%

## 548334 (antisense eG*e[5mC]*kT*d[5mC]*dA*d[5mC]*dT*dA*dT*dA*dG*dG*d[5mC]*k[5mC]*k[5mC]*e[5mC]) [compound 548334]
Table 27, HepaRG cells, 1,000 nM antisense oligonucleotide, human PKK mRNA
  % inhibition: 69%

## 547786 (antisense eA*eG*kT*dT*dG*d[5mC]*dT*dT*dG*d[5mC]*dT*dT*dG*kA*kA*eT) [compound 547786]
[2]
  % inhibition: 44%

## 548245 (e[5mC]*e[5mC]*kA*dT*dG*d[5mC]*dA*dT*dA*d[5mC]*dT*d[5mC]*dG*k[5mC]*k[5mC]*eT; antisense) [compound 548245]
[6]
  % inhibition: 31%

## 548586 (eT*e[5mC]*k[5mC]*dA*dA*d[5mC]*dT*dA*d[5mC]*dA*dG*dG*dA*k[5mC]*kT*e[5mC]; antisense) [compound 548586]
[4]
  % inhibition: 39%

## 548528 (antisense eT*eG*k[5mC]*dA*dG*dT*dG*dG*dT*d[5mC]*dA*dA*dG*k[5mC]*kA*eT) [compound 548528]
Table 28, HepaRG cells, 1,000 nM antisense oligonucleotide, human PKK mRNA
  % inhibition: 32%

## 548014 (eT*eG*kT*d[5mC]*d[5mC]*d[5mC]*d[5mC]*dA*dG*dT*dG*dT*dT*kA*k[5mC]*eA; antisense) [compound 548014]
[1]
  % inhibition: 31%
